The values that follow come from patent publication US5856318A (priority 1997, dated 1999).

Assay [1] deals with NMDA receptor. The following applies: C. Carter et al, J. Pharm Exp. Ther. 1988; cited from earlier work.
For assay [2], the target named is T1, sigma receptor (Cavia porcellus, UniProt Q60492).
T1 construct: Crude P2 membrane fractions were prepared from frozen; tissue Pel-Freeze, Rogers, Ark; (frozen guinea pig brains); host or cells: guinea pig brain minus cerebella, crude synaptosomal (P2) membranes
T1 sequence (Q60492 whole entry): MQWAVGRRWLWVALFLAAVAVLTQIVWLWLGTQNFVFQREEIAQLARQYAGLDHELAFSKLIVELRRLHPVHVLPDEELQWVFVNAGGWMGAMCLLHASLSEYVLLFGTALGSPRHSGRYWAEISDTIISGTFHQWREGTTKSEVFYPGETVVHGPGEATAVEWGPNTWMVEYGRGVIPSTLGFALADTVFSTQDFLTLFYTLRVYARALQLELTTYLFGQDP
It counts as binding, guinea pig. The following applies: read-out: Ki([3H](+)-Pent).

For “1-(4-chlorophenyl)-2-[1-(4-fluorophenyl)-piperidinyl]ethanol”, in assay [1], the NMDA receptor antagonism result is “non-competitive NMDA receptor antagonists”. On to `Clc1ccc(CCN2CCCC(N3CCCC3)C2)cc1Cl` (stereo not drawn) [Compound No. 1, 3-(1-Pyrrolidinyl)-1-[2-(3,4-dichlorophenyl)ethyl]piperidine], for which the Ki in assay [2] is 3.56 ± 1.56 nM. For `CC(C(O)c1ccc(O)cc1)N1CCC(Cc2ccccc2)CC1` (stereo not drawn) [ifenprodil], in assay [1], the NMDA receptor antagonism entry is “non-competitive NMDA receptor antagonists”.
